Measured values from PubChem BioAssay AID1259407 (Chemical Carcinogenesis Research Information System (CCRIS), 2018).
Activity calls are given as the source filed them. How the calls were made is not given here.

System: CCRIS mutagenicity, Ames/micronucleus/aberration tests
Test: CCRIS mutagenicity studies
Conditions: Test System: AMES SALMONELLA TYPHIMURIUM, Method: PREINCUBATION

Measured: mutagenic call

O=C1CCC(=O)O1
inactive: Strain/Indicator: TA97, Metabolic Activation: HAMSTER, LIVER, S-9, AROCLOR 1254 (10%) inactive; negative | Strain/Indicator: TA97, Metabolic Activation: HAMSTER, LIVER, S-9, AROCLOR 1254 (30%) inactive; negative | Strain/Indicator: TA97, Metabolic Activation: HAMSTER, LIVER, S-9, AROCLOR 1254 inactive; negative | Strain/Indicator: TA97, Metabolic Activation: NONE inactive; negative | Strain/Indicator: TA97, Metabolic Activation: RAT, LIVER, S-9, AROCLOR 1254 (10%) inactive; negative | Strain/Indicator: TA97, Metabolic Activation: RAT, LIVER, S-9, AROCLOR 1254 (30%) inactive; negative | Strain/Indicator: TA97, Metabolic Activation: RAT, LIVER, S-9, AROCLOR 1254 inactive; negative | Strain/Indicator: TA98, Metabolic Activation: HAMSTER, LIVER, S-9, AROCLOR 1254 (10%) inactive; negative | Strain/Indicator: TA98, Metabolic Activation: HAMSTER, LIVER, S-9, AROCLOR 1254 (30%) inactive; negative | Strain/Indicator: TA98, Metabolic Activation: HAMSTER, LIVER, S-9, AROCLOR 1254 inactive; negative | Strain/Indicator: TA98, Metabolic Activation: NONE inactive; negative | Strain/Indicator: TA98, Metabolic Activation: RAT, LIVER, S-9, AROCLOR 1254 (10%) inactive; negative | Strain/Indicator: TA98, Metabolic Activation: RAT, LIVER, S-9, AROCLOR 1254 (30%) inactive; negative | Strain/Indicator: TA98, Metabolic Activation: RAT, LIVER, S-9, AROCLOR 1254 inactive; negative | Strain/Indicator: TA100, Metabolic Activation: HAMSTER, LIVER, S-9, AROCLOR 1254 (10%) inactive; negative | Strain/Indicator: TA100, Metabolic Activation: HAMSTER, LIVER, S-9, AROCLOR 1254 (30%) inactive; negative | Strain/Indicator: TA100, Metabolic Activation: HAMSTER, LIVER, S-9, AROCLOR 1254 inactive; negative | Strain/Indicator: TA100, Metabolic Activation: NONE inactive; negative | Strain/Indicator: TA100, Metabolic Activation: RAT, LIVER, S-9, AROCLOR 1254 (10%) inactive; negative | Strain/Indicator: TA100, Metabolic Activation: RAT, LIVER, S-9, AROCLOR 1254 (30%) inactive; negative | Strain/Indicator: TA100, Metabolic Activation: RAT, LIVER, S-9, AROCLOR 1254 inactive; negative | Strain/Indicator: TA1535, Metabolic Activation: HAMSTER, LIVER, S-9, AROCLOR 1254 (10%) inactive; negative | Strain/Indicator: TA1535, Metabolic Activation: HAMSTER, LIVER, S-9, AROCLOR 1254 (30%) inactive; negative | Strain/Indicator: TA1535, Metabolic Activation: HAMSTER, LIVER, S-9, AROCLOR 1254 inactive; negative | Strain/Indicator: TA1535, Metabolic Activation: NONE inactive; negative | Strain/Indicator: TA1535, Metabolic Activation: RAT, LIVER, S-9, AROCLOR 1254 (10%) inactive; negative | Strain/Indicator: TA1535, Metabolic Activation: RAT, LIVER, S-9, AROCLOR 1254 (30%) inactive; negative | Strain/Indicator: TA1535, Metabolic Activation: RAT, LIVER, S-9, AROCLOR 1254 inactive; negative | Strain/Indicator: TA1537, Metabolic Activation: HAMSTER, LIVER, S-9, AROCLOR 1254 (10%) inactive; negative | Strain/Indicator: TA1537, Metabolic Activation: HAMSTER, LIVER, S-9, AROCLOR 1254 inactive; negative | Strain/Indicator: TA1537, Metabolic Activation: NONE inactive; negative | Strain/Indicator: TA1537, Metabolic Activation: RAT, LIVER, S-9, AROCLOR 1254 (10%) inactive; negative | Strain/Indicator: TA1537, Metabolic Activation: RAT, LIVER, S-9, AROCLOR 1254 inactive; negative
